Laboratory results reported in ChEMBL document CHEMBL1201862, “PubChem BioAssay data set” (2004).
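Method: 48-hour compound exposure of cells in 96-well plates, five concentrations, linear interpolation of endpoints. GI50: concentration for 50% inhibition of growth.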 Calls of active or inactive are those of the source. Cut-off read from the data, not from the text of the source: active = GI50 up to about 1.1 µM and inactive = higher.

Key:
Assay in all cases: growth of human tumour cells (NCI), 48 h
[1] = test system: SK-MEL-28
[2] = test system: K562
[3] = test system: SR
[4] = test system: MOLT-4
[5] = test system: SN12C
[6] = test system: RXF 393
[7] = test system: NCI-H23
[8] = test system: NCI-H522
[9] = test system: SK-OV-3
[10] = test system: M14
[11] = test system: CAKI-1
[12] = test system: SNB-19
[13] = test system: U-251
[14] = test system: HOP-92
[15] = test system: HCT-15
[16] = test system: HCC 2998
[17] = test system: SK-MEL-5
[18] = test system: COLO 205

| SMILES | GI50 [1] | GI50 [2] | GI50 [3] | GI50 [4] | GI50 [5] | GI50 [6] | GI50 [7] | GI50 [8] | GI50 [9] | GI50 [10] | GI50 [11] | GI50 [12] | GI50 [13] | GI50 [14] | GI50 [15] | GI50 [16] | GI50 [17] | GI50 [18] |
| --- | --- | --- | --- | --- | --- | --- | --- | --- | --- | --- | --- | --- | --- | --- | --- | --- | --- | --- |
| N#Cc1sc2nc3c(c(-c4ccccc4)c2c1N)CCCC3 | > 100 µM (inactive) | > 100 µM (inactive) | > 100 µM (inactive) | > 100 µM (inactive) | > 100 µM (inactive) | 41.8 µM (inactive) | > 100 µM (inactive) | 66.5 µM (inactive) | 39.4 µM (inactive) | > 10 µM (inactive) | > 100 µM (inactive) | 56.8 µM (inactive) | 39.8 µM (inactive) | 30.1 µM (inactive) | 60.5 µM | > 100 µM (inactive) | – | – |
| O=C(O)\C=C/C=C/C=C/C=C/C(=O)O | > 100 µM (inactive) | > 100 µM (inactive) | > 100 µM (inactive) | > 100 µM (inactive) | > 100 µM (inactive) | > 100 µM (inactive) | > 100 µM (inactive) | > 100 µM (inactive) | > 100 µM (inactive) | > 100 µM (inactive) | > 100 µM (inactive) | > 100 µM (inactive) | > 100 µM (inactive) | – | > 100 µM | > 100 µM (inactive) | > 100 µM (inactive) | > 100 µM (inactive) |
| C1COCCSC2=C(SCCO1)SC(=C1SC3=C(SCCOCCOCCS3)S1)S2 | > 100 µM (inactive) | > 100 µM (inactive) | 66.4 µM (inactive) | > 100 µM (inactive) | > 100 µM (inactive) | 32.8 µM (inactive) | > 100 µM (inactive) | 36.2 µM (inactive) | 72.1 µM (inactive) | > 100 µM (inactive) | > 100 µM (inactive) | 73.8 µM (inactive) | 49.2 µM (inactive) | 44.7 µM (inactive) | > 100 µM | > 100 µM (inactive) | > 100 µM (inactive) | > 100 µM (inactive) |
| CCCc1nc(NC#N)nc(C(=O)Nc2ccccc2)c1CC | > 100 µM (inactive) | > 100 µM (inactive) | – | > 100 µM (inactive) | > 100 µM (inactive) | > 100 µM (inactive) | > 100 µM (inactive) | > 100 µM (inactive) | – | > 100 µM (inactive) | > 100 µM (inactive) | > 100 µM (inactive) | > 100 µM (inactive) | > 100 µM (inactive) | > 100 µM | > 100 µM (inactive) | > 100 µM (inactive) | – |
| CC12C=C[C@]3(CC[C@@H]4[C@@](C)(CO)CCC[C@]4(C)C3CC1)C2 (stereo not given in full) | 19.2 µM (inactive) | 17.5 µM (inactive) | 16 µM (inactive) | 23.6 µM (inactive) | 18.2 µM (inactive) | 13.7 µM (inactive) | 18 µM (inactive) | 11.5 µM (inactive) | 18.7 µM (inactive) | 15.7 µM (inactive) | 12.8 µM (inactive) | 19.6 µM (inactive) | 16.6 µM (inactive) | > 47.3 µM (inactive) | 17 µM | > 10 µM (inactive) | – | 16.4 µM (inactive) |
| C#CCOCn1cnc2c(S)ncnc21 | > 100 µM (inactive) | > 100 µM (inactive) | – | – | > 100 µM (inactive) | > 100 µM (inactive) | > 100 µM (inactive) | > 100 µM (inactive) | > 100 µM (inactive) | > 100 µM (inactive) | > 100 µM (inactive) | > 100 µM (inactive) | > 100 µM (inactive) | > 100 µM (inactive) | > 100 µM | > 100 µM (inactive) | > 100 µM (inactive) | > 100 µM (inactive) |
| CC1(C)OC(=O)C(=Cc2ccc(O)cc2)C(=O)O1 | > 100 µM (inactive) | > 100 µM (inactive) | > 100 µM (inactive) | > 100 µM (inactive) | > 100 µM (inactive) | – | > 100 µM (inactive) | > 100 µM (inactive) | > 100 µM (inactive) | > 100 µM (inactive) | > 100 µM (inactive) | > 100 µM (inactive) | > 100 µM (inactive) | > 100 µM (inactive) | > 100 µM | > 100 µM (inactive) | > 100 µM (inactive) | > 100 µM (inactive) |
| Nc1ccc(/C=C/c2ccnc3ccccc23)cc1 | 32.4 µM (inactive) | 12.7 µM (inactive) | 2.84 µM (inactive) | 7.76 µM (inactive) | – | – | 20 µM (inactive) | 13.2 µM (inactive) | – | 20.2 µM (inactive) | 21.9 µM (inactive) | 27.6 µM (inactive) | 16.8 µM (inactive) | 20.3 µM (inactive) | 21 µM | 28.4 µM (inactive) | 15.2 µM (inactive) | 22.9 µM (inactive) |
| N#CCC(=O)Nc1ccccc1O | > 100 µM (inactive) | > 100 µM (inactive) | > 100 µM (inactive) | > 100 µM (inactive) | > 100 µM (inactive) | > 100 µM (inactive) | > 100 µM (inactive) | > 100 µM (inactive) | > 100 µM (inactive) | > 100 µM (inactive) | > 100 µM (inactive) | > 100 µM (inactive) | > 100 µM (inactive) | > 100 µM (inactive) | > 100 µM | > 100 µM (inactive) | > 100 µM (inactive) | > 100 µM (inactive) |
| CC(c1ccccc1)N1O[C@]12CC[C@@]1(C)C(CCCC13OCCO3)C2 (stereo not given in full) | 47.8 µM (inactive) | – | 16.7 µM (inactive) | – | 29 µM (inactive) | 23.6 µM (inactive) | 38.4 µM (inactive) | 17.2 µM (inactive) | > 100 µM (inactive) | 17.6 µM (inactive) | 22.2 µM (inactive) | > 100 µM (inactive) | 21.1 µM (inactive) | 11.1 µM (inactive) | 23.3 µM | 75.5 µM (inactive) | 36.1 µM (inactive) | 17.8 µM (inactive) |
| c1ccc(COc2cccc3cccnc23)cc1 | > 100 µM (inactive) | 55 µM (inactive) | – | > 100 µM (inactive) | > 100 µM (inactive) | 42.4 µM (inactive) | 44 µM (inactive) | 50.9 µM (inactive) | > 100 µM (inactive) | > 100 µM (inactive) | – | > 100 µM (inactive) | – | 28.4 µM (inactive) | – | > 100 µM (inactive) | 50.2 µM (inactive) | > 100 µM (inactive) |
| CCCCCN(CCCCC)C(=O)[C@H](CCC(=O)O)NC(=O)c1cc2ccccc2[nH]1 | 29.8 µM (inactive) | 34.8 µM (inactive) | – | 24.9 µM (inactive) | 48.5 µM (inactive) | 33.3 µM (inactive) | 28.2 µM (inactive) | 20.2 µM (inactive) | > 100 µM (inactive) | 59.7 µM (inactive) | 51.9 µM (inactive) | 35.6 µM (inactive) | 35.7 µM (inactive) | 32.3 µM (inactive) | 54.8 µM | 33.4 µM (inactive) | – | > 100 µM (inactive) |
| O=C1/C(=C/c2ccccc2Cl)COc2ccc(Br)cc21 | > 100 µM (inactive) | 3.82 µM (inactive) | – | 18 µM (inactive) | – | 39 µM (inactive) | > 100 µM (inactive) | 20.6 µM (inactive) | 27 µM (inactive) | – | – | – | 40.6 µM (inactive) | 46.3 µM (inactive) | – | > 100 µM (inactive) | – | 73.8 µM (inactive) |
| CC1=NN(C(=O)CC(=O)NC(=O)CC(=O)Nc2ccccc2F)C(=O)C1/N=N/c1ccc([N+](=O)[O-])cc1 (stereo not given) | > 100 µM (inactive) | 28.1 µM (inactive) | – | 39.3 µM (inactive) | > 100 µM (inactive) | – | 51.9 µM (inactive) | – | 45.3 µM (inactive) | 57.4 µM (inactive) | 63.1 µM (inactive) | 60.1 µM (inactive) | 21.3 µM (inactive) | 51.4 µM (inactive) | 33.7 µM | 71.6 µM (inactive) | 44.4 µM (inactive) | 31.2 µM (inactive) |
| CC1=C(C(=O)Nc2ccc(Cl)c(Cl)c2)C(c2ccco2)C(C(=O)Nc2ccc(Cl)c(Cl)c2)=C(C)N1 | 11.7 µM (inactive) | 7.06 µM (inactive) | 10.6 µM (inactive) | 4.98 µM (inactive) | 11.6 µM (inactive) | – | 17.8 µM (inactive) | 5.73 µM (inactive) | 13.5 µM (inactive) | 6.14 µM (inactive) | 14 µM (inactive) | 12.7 µM (inactive) | 11 µM (inactive) | 15.8 µM (inactive) | 11.5 µM | 11.5 µM (inactive) | 13.7 µM (inactive) | 12.9 µM (inactive) |
| COC1OC(C)C(OCc2ccccc2)C(OS(=O)(=O)c2ccc(C)cc2)C1OS(=O)(=O)c1ccc(C)cc1 (stereo not given) | > 100 µM (inactive) | > 100 µM (inactive) | > 100 µM (inactive) | > 100 µM (inactive) | > 100 µM (inactive) | > 100 µM (inactive) | > 100 µM (inactive) | > 100 µM (inactive) | > 100 µM (inactive) | > 100 µM (inactive) | 53.5 µM (inactive) | > 100 µM (inactive) | > 100 µM (inactive) | – | > 100 µM | > 100 µM (inactive) | > 100 µM (inactive) | > 100 µM (inactive) |
| O=c1nc2sc3ccc4ccccc4c3n2nc1O | 40.4 µM (inactive) | 44.5 µM (inactive) | – | 57.4 µM (inactive) | 86.5 µM (inactive) | 15.5 µM (inactive) | 71.1 µM (inactive) | 53.7 µM (inactive) | > 100 µM (inactive) | – | – | 60.1 µM (inactive) | 25.2 µM (inactive) | – | – | 54.8 µM (inactive) | 43.8 µM (inactive) | 62.4 µM (inactive) |
| Cc1ccc(C)c(N2C(=O)C(=O)C(c3nc4ccccc4s3)/C(=N/NC(=O)NN)C2=O)c1 (stereo not given) | > 100 µM (inactive) | – | > 100 µM (inactive) | > 100 µM (inactive) | > 100 µM (inactive) | > 100 µM (inactive) | > 100 µM (inactive) | > 100 µM (inactive) | > 100 µM (inactive) | > 100 µM (inactive) | > 100 µM (inactive) | > 100 µM (inactive) | > 100 µM (inactive) | > 100 µM (inactive) | > 100 µM | > 100 µM (inactive) | > 100 µM (inactive) | > 100 µM (inactive) |
